Experimental data: patent US20100261711A1, “SELECTIVE ANTICONVULSANT AGENTS AND THEIR USES” (WiSys Technology Foundation, priority 2009, published 2010)
Marks after values point to notes of the source that are not given here.

Key:
α1β3γ2 GABAA receptors = target: T1, α1β3γ2 GABAA receptors (Homo sapiens, UniProt P14867+P18507); assay: Voltage clamp recordings from Xenopus oocytes; assay type: cell-based
T1 construct: expressed in transfected cells; host or cells: Xenopus laevis oocytes injected with cRNA
Experimental: The GABAA subunit selectivity of several compounds prepared as described above were determined using voltage clamp recordings from Xenopus oocytes that expressed that αxβ3γ2 GABAA receptor.
In Vitro Expression of GABAA Receptor Subunits The methods used for isolating, culturing, injecting and defolliculating of the oocytes were identical with those described by E. Sigel. […] European journal of pharmacology 1995, 289, (1), 87-95; Sigel, E.;& Baur, R., Allosteric modulation by benzodiazepine receptor ligands of the GABAA receptor channel expressed in Xenopus oocytes. J. Neurosci. 1988, 8, (1), 289-95; Sigel, E.; & Minier, F., The Xenopus oocyte: System for the study of functional expression and modulation of proteins. Molecular Nutrition & Food Research 2005, 49, (3), 228-234. Mature female Xenopus laevis (Nasco, Wis.) were anaesthetized in a bath of ice-cold 0.17% Tricain (Ethyl-m-aminobenzoate, Sigma, Mo.) before decapitation and removal of the frog ovary. Stage 5 to 6 oocytes with the follicle cell layer around them were singled out of the ovary using a platinum wire loop. […]
Voltage Clamp Recordings From Xenopus Oocytes. […] Data were digitized, recorded and measured using a Digidata 1322A data acquisition system (Axon Instruments, Union City, Calif.). […]

[1] = system: Metrazol-induced clonic seizures; assay: Subcutaneous Metrazol test (scMet), rats; assay type: in vivo
[2] = Toxicity (TOX), minimal motor deficit, rats; assay type: in vivo; settings: in vivo; Rat IP
kindled motor seizure = assay: Hippocampus kindling screen; assay type: in vivo; settings: Rats IP
From the text: The hippocampus kindling screen is a useful adjunct to the traditional MES and scMet tests for identification of a substance potential utility for treating complex partial seizures. […] No toxic effects were observed as indicated by the lack of motor impairment on the rats tested.

T1 sequence (P14867 28-456): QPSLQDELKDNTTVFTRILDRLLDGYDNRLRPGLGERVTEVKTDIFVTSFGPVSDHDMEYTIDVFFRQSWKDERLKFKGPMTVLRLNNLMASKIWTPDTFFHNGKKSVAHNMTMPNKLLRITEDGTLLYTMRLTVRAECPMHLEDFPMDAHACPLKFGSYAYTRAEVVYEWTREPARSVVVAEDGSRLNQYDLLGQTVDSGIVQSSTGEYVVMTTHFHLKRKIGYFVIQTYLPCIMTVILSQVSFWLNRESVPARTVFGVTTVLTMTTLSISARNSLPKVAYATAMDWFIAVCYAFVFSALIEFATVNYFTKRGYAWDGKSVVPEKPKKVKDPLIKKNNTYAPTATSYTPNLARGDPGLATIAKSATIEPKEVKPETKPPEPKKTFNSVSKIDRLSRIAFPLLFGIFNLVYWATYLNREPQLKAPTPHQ
T1 sequence (P28472 26-473 partner): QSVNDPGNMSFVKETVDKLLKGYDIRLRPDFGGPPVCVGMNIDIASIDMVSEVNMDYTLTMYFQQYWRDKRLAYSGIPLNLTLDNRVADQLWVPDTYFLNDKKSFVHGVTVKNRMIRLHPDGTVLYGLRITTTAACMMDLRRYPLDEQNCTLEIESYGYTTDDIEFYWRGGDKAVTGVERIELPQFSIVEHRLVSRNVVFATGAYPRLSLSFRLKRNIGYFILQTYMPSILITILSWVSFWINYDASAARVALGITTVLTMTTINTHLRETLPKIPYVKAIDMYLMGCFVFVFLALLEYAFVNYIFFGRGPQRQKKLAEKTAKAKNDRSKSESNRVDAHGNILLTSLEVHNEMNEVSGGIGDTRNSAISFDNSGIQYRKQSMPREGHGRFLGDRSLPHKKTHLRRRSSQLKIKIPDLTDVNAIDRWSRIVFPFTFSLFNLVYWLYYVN
T1 sequence (P18507 40-475): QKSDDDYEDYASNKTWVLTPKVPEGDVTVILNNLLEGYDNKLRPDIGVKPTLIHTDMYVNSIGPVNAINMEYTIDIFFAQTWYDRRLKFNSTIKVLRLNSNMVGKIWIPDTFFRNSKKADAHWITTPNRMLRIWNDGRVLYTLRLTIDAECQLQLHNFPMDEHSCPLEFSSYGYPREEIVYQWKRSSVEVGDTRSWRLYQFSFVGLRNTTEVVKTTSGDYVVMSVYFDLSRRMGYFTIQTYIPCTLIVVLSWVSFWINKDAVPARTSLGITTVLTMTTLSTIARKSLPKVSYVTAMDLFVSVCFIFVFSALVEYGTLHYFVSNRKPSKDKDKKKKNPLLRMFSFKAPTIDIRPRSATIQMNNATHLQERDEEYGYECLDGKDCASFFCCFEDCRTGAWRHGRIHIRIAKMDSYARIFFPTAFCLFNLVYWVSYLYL

Compound	efficacy at α1 (percent of control current) (α1β3γ2 GABAA receptors)	ED50 ([1]; Rat IP)	scMet, animals protected/tested ([1]; Rat IP, 100 mg/kg, 0.5 hr)	scMet, animals protected/tested ([1]; Rat IP, 100 mg/kg, 4.0 hr)	ED50 ([1]; Rat PO)	scMet, animals protected/tested ([1]; Rat PO, 50 mg/kg, 0.5 h)	scMet, animals protected/tested ([1]; Rat PO, 50 mg/kg, 1.0 h)	scMet, animals protected/tested ([1]; Rat PO, 50 mg/kg, 2.0 h)	scMet, animals protected/tested ([1]; Rat PO, 50 mg/kg, 4.0 h)	scMet, animals protected/tested ([1]; Rat PO, 50 mg/kg, […])	TD50 [2]	Tox, animals toxic/tested (kindled motor seizure; 50 mg/kg after 1.0 h)	Afterdischarge Duration, Drug (Low-High) (kindled motor seizure; 50 mg/kg after 1.0 h, pre-drug 47-61)	scMet, animals protected/tested ([1]; Rat PO, 40 mg/kg, 4.0 h)	scMet, animals protected/tested ([1]; Rat PO, 40 mg/kg, 6.0 h)	Tox, animals toxic/tested (kindled motor seizure; 30 mg/kg after 1.0 h)	Afterdischarge Duration, Drug (Low-High) (kindled motor seizure; 30 mg/kg after 1.0 h, pre-drug 30-41)
C#Cc1ccc2c(c1)C(c1ccccn1)=NCc1c(C(=O)OCC)ncn1-2 [Hz166 (106), 8-Acetylenyl-6-pyridin-2-yl-4H-benzo[f]imidazo[1,5-a][1,4]diazepine-3-carboxylic acid ethyl ester]	255%	35.5 mg/kg	7/8	5/8	98.5 mg/kg	4/4	2/4	1/4	0/4	0/4	95.3 mg/kg	0/8^a	59- s				
C#Cc1ccc2c(c1)C(c1ccccc1F)=NCc1c(C(=O)OCC)ncn1-2 [JY-XHe-053 (15), Ethyl-8-acetyleno-6-(2′-fluorophenyl)-4H-benzo[f]imidazo[1,5-a][1,4]diazepine-3-carboxylate]	289%	18.2 mg/kg	3/4	3/4	23.7 mg/kg	3/4	3/4	1/4	4/4	1/4	69.6 mg/kg			2/4^e	2/4^e	0/2^b	38- s
